Experimental data taken from patent US8039621B2, “Process for preparing anhydrous Aripirazole type I” (Cambrex Charles City, Inc., priority 2006, dated 2011).

Assay: Hygroscopicity of dried anhydrous aripiprazole Type I crystals
Type: physicochemical
Settings: vacuum of 22 inches Hg
Protocol: […] A dish of phosphorous pentoxide (dessicant) also was placed in the oven. Periodically, approximately a one (1) gram sample of the aripiprazole wet cake was removed from the oven and analyzed for moisture content by the volumetric Karl Fischer titration method and also for its hygroscopicity. At the end of the 40 hour period, the moisture content of the final sample was analyzed using the coulometric Karl Fischer titration method and the hygroscopicity of the sample also was determined.
Another portion of the aripiprazole wet cake (20 g), prepared in accordance with the above-described procedure, was placed in a drying oven, the oven maintained at a temperature between 70 to 80° C., and under a vacuum of 22 inches Hg for a period of 40 hours. A dish of phosphorous pentoxide (dessicant) also was placed in the oven to facilitate drying. Periodically, approximately a one (1) gram sample of the aripiprazole wet cake was removed from the oven and analyzed for moisture content by the volumetric Karl Fischer titration method and also for its hygroscopicity. At the end of the 40 hours, the moisture content of the final sample was analyzed using the coulometric Karl Fischer titration method and the hygroscopicity of the sample also was determined.

[1] = final sample after 40 Hours in 60 to 65° C. Oven
[2] = final sample after 40 Hours in 70 to 80° C. Oven

With `O=C1CCc2ccc(OCCCCN3CCN(c4cccc(Cl)c4Cl)CC3)cc2N1` [Batch 1, 7-[4-[4-(2,3-dichlorophenyl)-1-piperazinyl]butoxy]-3,4-dihydro-2-(1H)-quinolinone] the “Hygroscopicity (%)” value [1] was 3.2% and the “Hygroscopicity (%)” value [2] was 0.8%.
For `O=C1CCc2ccc(OCCCCN3CCN(c4cccc(Cl)c4Cl)CC3)cc2N1` [Batch 2, 7-[4-[4-(2,3-dichlorophenyl)-1-piperazinyl]butoxy]-3,4-dihydro-2-(1H)-quinolinone], the “Hygroscopicity (%)” value [1] was 1.2% and the “Hygroscopicity (%)” value [2] was 0.7%.
With `O=C1CCc2ccc(OCCCCN3CCN(c4cccc(Cl)c4Cl)CC3)cc2N1` [Batch 3, 7-[4-[4-(2,3-dichlorophenyl)-1-piperazinyl]butoxy]-3,4-dihydro-2-(1H)-quinolinone] the “Hygroscopicity (%)” value [1] was 1.8% and the “Hygroscopicity (%)” value [2] was 0.4%.
